The source made the active and inactive calls. No cut-off for these calls is given here.

One assay has as its system SK-HEP1. Put plainly: Cytotoxicity against human SK-Hep1 cells assessed as reduction in cellular ATP level after 48 hrs. It is filed as functional, cell-based. As to conditions: SK-HEP1, 48 h, pooled result: one value given for 3 cell lines, strains, targets or settings.
The target of assay [1] is T1, Caspase-3 (Homo sapiens) (UniProt P42574).
T1 sequence (whole entry): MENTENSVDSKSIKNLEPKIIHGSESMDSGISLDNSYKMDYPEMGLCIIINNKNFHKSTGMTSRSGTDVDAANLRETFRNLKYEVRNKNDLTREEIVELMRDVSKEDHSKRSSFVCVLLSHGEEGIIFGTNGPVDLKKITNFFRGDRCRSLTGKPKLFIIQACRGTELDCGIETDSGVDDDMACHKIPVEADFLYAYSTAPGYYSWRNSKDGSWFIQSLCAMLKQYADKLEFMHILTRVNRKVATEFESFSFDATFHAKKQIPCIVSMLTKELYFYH
Put plainly: Activation of human caspase 3 in human CA46 cells at 110 uM after 48 hrs by PerkinElmer Trupoint assay. It is filed as cell-based.

Assay [2] concerns the target T1, Caspase-3 (Homo sapiens). Put plainly: Activation of human caspase 3 in human SK-Hep1 cells at 110 uM after 48 hrs by PerkinElmer Trupoint assay. It is filed as cell-based.

As to `O=C1c2ccccc2C(=O)N1c1nc2ccc(OC(F)(F)F)cc2s1` [PHATHALIMIDE], the IC50 – broadly, the point on the concentration scale where inhibition reaches its midpoint – in the assay with SK-HEP1 came to 69 µM. Further, the result on Caspase-3 (Homo sapiens) [1] and at Caspase-3 (Homo sapiens) [2] was Active.
As to `C[C@@]12C(=O)N(c3nc4ccc(OC(F)(F)F)cc4s3)C(=O)[C@]1(C)[C@H]1CC[C@@H]2O1` [CANTHARIDIMIDE], in the assay with SK-HEP1, the IC50 stood at 15.2 µM.

(Values after ChEMBL document CHEMBL1142403, “Synthesis and anti-cancer activity of benzothiazole containing phthalimide on human carcinoma cell lines” (Bioorg Med Chem, 2008).)
